# Reference: US6103709A (priority 1998, dated 2000)
# Entries after “also recorded” stand apart in the source; their conditions may differ.
# Legend:
# [1] = system: vitamin D-deficient chick; assay: Intestinal Ca2+ absorption (ICA) in vitamin D-deficient chick; type: in vivo; details: i.m.
# Procedure: A primary fundamental physiological property of vitamin D and particularly 1α,25(OH)2 D3 is its ability to stimulate the intestinal absorption of calcium and facilitate the availability of dietary calcium to the organism. Intestinal absorption of the calcium is measured by the intestinal calcium absorption (ICA) assay, developed in the model of vitamin-D deficient chicks. The ICA assay was used to determine the relative capability of the tested analog to stimulate intestinal Ca^2+ absorption.
# (§1) Results of the testing of the analogs of the invention in vivo by the ICA and IBM assays are shown in FIG. 9 which illustrates the capability of analogs LO, EV and HR to stimulate intestinal Ca^2+ absorption (ICA) and bone Ca^2+ mobilizing activity (BCM). In this study, the analogs of 1α,25(OH) were given i.m. to vitamin D-deficient chicks 12 hours before the assay began. The activity produced by 100 pmol of 1α,25(OH)2 D3 was set to be 100% for both ICA and BCM. The dose of the analogs required to achieve a biological response for either ICA or BCM equivalent to the 100 pmol dose of 1α,25(OH)2 D3 was calculated and converted to a percentage. Results are expressed as mean +SE of groups of seven chicks. Each assay included a negative control (-D), that is no vitamin D was present, and a positive control, where vitamin D3 (+D3) was present in 3.25 nmol. […] 1α,25(OH)2 D3 and analogs LO [14α,15α-methano-1α,25(OH)2 D3 ], EV [22-(m(dimethylhydroxymethyl)phenyl)-23,24,25,26,27-pentanor-1α-OH-D3 ] and HR [(22R)-1,25(OH)2 -22,23-diene-D3 ] were administered in 0.0065, 0.065, 0.65 and 6.5 nmol as shown.
# (§2) In Vivo Assays of Intestinal Calcium Absorption and Bone Calcium Mobilization
# (§3) This example describes assays used for determination of analogs biological activity in intestinal calcium absorption (ICA) and bone calcium mobilization (BCM) assays.
# (§4) ICA and BCM were measured in vivo in the vitamin D-deficient chick model system according to Biochem. Pharmacol., 18: 2347 (1969).
# (§5) Twelve hours before assay, the chickens, which had been placed on a zero-calcium diet 48 h before assay, were injected intramuscularly with the vitamin metabolite 1α,25(OH)2 D3 or analog (1-10,000 pmoles) dissolved in 0.1 mL of ethanol/1,2-propanediol (1:1, v/v). At the time of assay, 4.0 mg of ^40 Ca^2+ +5 μCi of ^45 Ca^2+ (New England Nuclear) were placed in the duodenum of the birds lightly anesthetized with ether. After 30 min, the birds were decapitated and the blood was collected.
# The radioactivity content, which is a measure of ICA, of 0.2 mL of serum was measured in a liquid scintillation counter (Beckman LS8000) to determine the amount of ^45 Ca^2+ absorbed.
# [2] = system: vitamin D-deficient chick; assay: Bone Ca2+ mobilizing activity (BCM) in vitamin D-deficient chick; type: in vivo; details: i.m.
# Procedure: The bone calcium mobilizing (BCM) assay is also conducted in the vitamin D-deficient chick. The BCM assay determines the relative ability of the tested analog to mobilize bone calcium. The natural hormone 1α,25(OH)2 D3 is very potent in the BCM assay. For example, when 1α,25(OH)2 D3 in inappropriate amounts are used as a drug in human patients, the patient may become hypercalcemic and eventually hypercalciuria with nephrolithiasis and renal failure may develop. The BCM assay was used to determine the relative activity of the analogs of the invention to stimulate bone Ca^2+ mobilization.
# as §1, §2, §3, §4, §5
# BCM activity was estimated from the increase of total serum calcium concentration, as determined by atomic absorption spectrophotometry.
# [3] = system: MAP-kinase p42^mapk in NB4 cells; assay: MAP-kinase activation (p42mapk phosphorylation) in NB4 cells; type: cell-based, human; details: 1 or 5 minutes exposure
# Procedure: In order to determine whether MAP-kinase phosphorylation is specific and is altered by 1α,25(OH)2 D3, the time-dependent effects of 1α,25(OH)2 D3 on p42^mapk phosphorylation was examined using human acute promyelocytic leukemia cells (NB4). In this study, the NB4 cells, cultured in 10% charcoal-stripped fetal calf serum (FCS) medium, were treated with 1α,25(OH)2 D3 at 10^-8 M for various time periods. Cells were then extracted and the phosphorylated MAP-kinase was immunoprecipitated with anti-phosphotyrosine antibody and further analyzed by Western blot using the antibodies against p42^mapk.
# The lysate was further processed for anti-phosphotyrosine immunoprecipitation. […] After transferring the proteins to the PVDF membrane, the membrane was further incubated with primary anti-p42^mapk antibodies that were (+) or were not (-) pre-exposed to MAP-kinase peptide.
# This example describes assays used for measurement of MAP-kinase activity in NB4 cells.
# Cell culture of NB4 cells
# The cell line is characterized by a translocation involving chromosomes 15 and 17, which is typical of the classical form of APL-M3 in the French-American-British [FAB] classification. NB4 cells were cultured in DMEM/F12 medium with 10% FCS at 5% CO2 balanced air and were routinely passaged as suspension cultures and only passages 8 to 20 were used for each assay.
# Immunoprecipitation of Tyrosine-Phosphorylated Proteins
# NB4 cells were cultured in 60-mm diameter dishes and treated with 1,25(OH)2 D3 or analogs in 4 ml of DMEM/F12 containing 10% charcoal-stripped FCS.
# Insoluble material was removed in a microcentrifuge at 14,000 rpm for 10 min. Protein concentration was determined with a protein assay kit (Bio-Rad Lab, Hercules, Calif.). For immunoprecipitation, the supernatant was incubated with bead-conjugated monoclonal anti-phosphotyrosine antibody overnight at 4° C. The immunoprecipitates containing the tyrosine-phosphorylated proteins were washed four times with freshly-prepared RIPA buffer and further eluted with 2× Laemmli gel buffer.
# At this point, the samples were either stored at -20° C. for further use or processed via Western blots. Equal loading of MAP-kinase protein was determined by running the Western blots using polyclonal anti-p42^mapk antibody. For this purpose, samples were aliquoted from each cell extract before immunoprecipitation.
# SDS Gel Electrophoresis and Western blot
# The membrane was further immunoblotted using a rabbit anti-p42^mapk polyclonal antibody overnight at 4° C. followed by incubation with secondary horseradish peroxidase-conjugated mouse anti-rabbit antibody for 1 hr at 25° C. The phosphorylated MAP-kinase bands were then visualized by enhanced chemiluminescence (ECL). A Ultrascan LX Laser Densitometer (LKB, Bromma, Sweden) scanned the density of the immuno-phosphoprotein bands. The results were normalized by protein loading and further plotted as percent of control of the band density.
# [4] = system: chloride channels in ROS 17/2.8 cells
# Procedure: In each case, at least a 3-min period was allowed after the addition of the analog to the bath for currents to reach a stable amplitude value. […] Anion currents were isolated from inward Ba^2+ currents after blockade of Ca^2+ channels with 100 μM Cd^2+.
# VDRnuc = assay: Genomic response (summary classification); details: Yes/No, Tables 1 and 6
# Text: (§6) Table 6 identifies biological properties, such as genomic response, rapid response, agonist or antagonist function, binding of the analog to the vitamin binding protein (expressed as RCI), binding to the nuclear 1α,25(OH)2 D3 receptor (expressed as RCI) rapid response (expressed as % transcaltachia the rapid hormonal stimulation of intestinal calcium absorption) the classic vitamin D responses such as intestinal Ca^2+ absorption (ICA) and bone Ca^2+ mobilizing activity (BCM) determined in vivo in a vitamin D-deficient chick, and cell differentiation (expressed as % ED50), an assessment of the ability to promote the nuclear response of cell differentiation.
# VDRmem = assay: Rapid response (summary classification); details: Yes/No, Tables 1 and 6
# Text: as §6
# rapid responses (VDRmem) = assay: Antagonist function (summary classification); details: Yes/No, Tables 1 and 6
# Text: as §6
# keratinocytes = details: cell cultures of keratinocytes; cited from earlier work
# [5] = relative to 100 pmol 1α,25(OH)2 D3 = 100%, 12 h before assay
smiles,measurement,setting,value
"C=C1/C(=C\C=C2/CCC[C@]3(C)[C@@H]([C@H](C)CCCC(C)(C)O)CC[C@@H]23)C[C@@H](O)C[C@@H]1O [Analog C, 1α,25-dihydroxyvitamin D3, reference compound]",Classic Vit D Responses ICA,[1]; [5],100%
same,ICA (in words),[1]; vitamin D-deficient chick,most potent stimulator of ICA and BCM
same,Classic Vit D Responses BCM,[2]; [5],100%
same,BCM (in words),[2]; vitamin D-deficient chick,most potent stimulator of ICA and BCM
same,phosphorylation / activation of MAP-kinase p42mapk (in words),[3],significantly increased phosphorylation of p42^mapk in NB4 cells
same,opening of chloride channels (in words),"[4]; 0.05-50 nM, alone, listed as 1α,25(OH)2 D3",concentration-dependent effect on the promotion of anion currents; also recorded: agonist which opens chloride channels
same,cells responding with promotion of anion currents,"[4]; 1α,25(OH)2 D3 alone, 14 out of 15 cells",93%
same,Genomic Response,VDRnuc,Yes
same,Rapid Response,VDRmem,Yes
same,Antagonist,rapid responses (VDRmem),No
same,"production of keratin, involucrin and loricrin",keratinocytes,"stimulate the production of keratin, involucrin and loricrin"
